What was measured:
[1] = tested on: epithelial cells isolated from the small intestine of a rat; test: Degradation of penem in epithelial cells isolated from rat small intestine (free acid of penem remaining by HPLC, with/without cilastatin); assay type: in vitro ADME; details: cilastatin 35 μg/ml; 37° C., 60 minutes
Experimental: Degradation of penems in epithelial cells isolated from the small intestine of a rat was investigated by the following method. Namely, the epithelial cells were isolated from the small intestine of the rat by the citric acid method reported in The Journal of Biological Chemistry, 248, […] (1973).
After the resultant solution was incubated at 37° C. for 60 minutes, the free acid of the penem was measured by high performance liquid chromatography (HPLC).

[2] = in vivo; design: species or system Sprague-Dawley male rats; details: rat, intravenous penem; at each cilastatin dosage
Experimental: The blood was collected during the period of from 0.1 to 1.5 hours after the administration. The concentrations of the free acid of the penem in plasma samples were measured by high performance liquid chromatography (HPLC) to determine the area under the plasma concentration:time curve (AUC).

CC1(C)C[C@@H]1C(=O)N/C(=C\CCCCSC[C@H](N)C(=O)O)C(=O)O [cilastatin, reference compound]
Degradation of the penem carboxylate by addition of cilastatin [1]: inhibited
Area under the plasma concentration:time curve upon intravenous administration, compared with single administration [2]: not different

— US5354748A, “Oral antibacterial compositions and method for the improvement of gastrointestinal absorption of penem or carbapenem antibiotics” (Suntory Limited, priority 1991, dated 1994)
